# Measured values from patent US9011853B2, “B7-H4 fusion proteins and methods of use thereof” (Amplimmune, Inc., priority 2009, dated 2015).
# “And” between values parts separate entries of the source, which are not always exact repeats. Equal values may be shown once. “Also recorded” adds a separate entry of the source.
# How the values were obtained:
# [1] = system: DBA/1 mice; test: Therapeutic CIA study AA#79 (female mice), disease score; assay type: in vivo, mouse
# Description: (§1) DBA/1 mice (10 per group) aged 7-9 weeks were used for the CIA model. Mice from several vendors (Jackson Laboratories, Harlan Laboratories, and Taconic Farms) were tested and it was determined that Taconic mice are most appropriate for the CIA studies. Taconic mice develop more consistent and severe disease symptoms and show continued disease progression, while mice from the other vendors often show stable, less severe disease, even in the absence of treatment. female (F) mice in AA#79 and male (M) mice in AA#80, were tested to determine which gender to use in future experiments.
# (§2) On the day before the study is initiated, the hair on the right flank of each mouse was removed using an electric clipper. A metal identification tag was placed on the right ear of each mouse. On Day 0, mice were immunized with 100 μL of chicken collagen type II/Complete Freund's Adjuvant (CII/CFA) emulsion in the right flank. On Day 20, the hair on the left flank of each mouse was removed using an electric clipper, and on Day 21, mice were immunized with 100 μL of chicken collagen type II/Incomplete Freund's Adjuvant (CII/IFA) emulsion in the left flank. Pre-filled syringes of CII/CFA and CII/IFA emulsion purchased from Hooke Laboratories were used to ensure consistent dosing with and potency of the immunogen.
# (§3) Early arthritis symptoms, such as erythema and mild swelling, usually appear on Day 21, and on Day 28, more severe symptoms such as swelling in many digits and inflammation extending to the tarsal joint are typically present. Each limb is evaluated for severity of arthritis symptoms three times a week using a widely accepted arthritis severity score system, shown in Table 2. The scores from each of the 4 limbs are summed to yield the disease score of each mouse. […]
# (§4) Treatment was initiated when the average disease score for the study animals was greater than four. This corresponded to Day 29 in AA#79 and Day 24 in […]. By waiting until animals are symptomatic, it was ensured that the model is performed in a therapeutic rather than prophylactic mode.
# (§5) B7-H4-Ig, RPA110010, and murine B7-H4-Ig proteins were administered by intraperitoneal (IP) injection 3 times a week for a total of 8 doses. RPA110010 is an extracellular domain variant of B7-H4-Ig, SEQ ID NO:126. Control murine and human IgG proteins were given once a week for a total of 3 doses. […] All proteins were diluted to the desired concentration (500 μg in 500 μL, or 1 mg/mL) with sterile PBS immediately before injection. Vehicle control mice receive Amplimmune formulation buffer diluted 1:10 in PBS, with an injection volume of 500 μL.
# [2] = system: CD4^+CD62L^+ naïve T cells; test: In vitro Th1 polarization: proliferation and cytokine production; assay type: cell-based, mouse
# Description: Mouse splenocytes were first removed isolated from DO11.10 mice, which express an MHC class II restricted T cell receptor specific for OVA323-339. Mouse CD4^+ T cells were purified using a Miltenyi CD4^+ T cell negative isolation kit (Cat#130-090-860). […] CD4^+CD62L^+ naïve T cells with or without CD25^+ T cells were cultured in serum free HL-1 media in the presence of rIL-2 (1 ng/mL), rIL-12 (4 ng/mL) and anti-IL-4 (1 μg/mL). Activity of murine B7-H4-Ig was tested in a number of formats (soluble and insoluble presentation of B7-H4-Ig). Murine B7-H4-Ig was also assessed for activity on T cells activated non-specifically or with antigen-specific stimulation. To provide murine B7-H4-Ig in an immobilized format, 96-well flat bottom plates were first coated with murine B7-H4-Ig, 100 μl per well at 1 μg/mL, and incubated at 37° C. for 2 hours. […] For non-specific antigen activation, Mouse CD3/CD28 T Cell Expander beads (Dynabeads®; Invitrogen, Cat#11452D) were added into each well, at a 1:1 cell to bead ratio. For OVA specific activation, splenocytes were first isolated from Balb/C mice as antigen presenting cells (APC) followed by irradiation at 3000 rads for 45 minutes and then added into each well, at a 1:1, APC to responder cell, ratio. OVA323-339 peptide was added into the culture at 20 μg/mL. [^3H]-Thymidine (1 μCi/well) was added into each well 24 hr post co-incubation. Proliferation was determined by uptake of [^3H]-thymidine detected at 48 hr post [^3H]-thymidine addition using a Topcount Microplate Scintillation Counter (Packard Instruments, Meridan, Conn.). Results are expressed as the mean of triplicate cultures±SEM. Supernatants were collected from plates without [^3H]-Thymidine at 72 hr for cytokine analysis. Cytokine measurements were performed using the Mouse Cytokine 10-Plex system (Millipore) and Luminex Liquidchip analyzer (Qiagen, Valencia, Calif.) or ELISA. The human and mouse B7-H4 proteins are 95% homologous. Human B7-H4-Ig was tested for cross-reactivity with murine T cells. Naïve CD4^+ T cells were isolated as described above. Upon purification, murine naïve CD4^+ T cells were polarized in the presence of IL-2, IL-12 and anti-IL4 for Th1 cell-promoting conditions, or TGF-β, IL-6, IL-23, anti-IL4, anti-IFNγ and anti-IL-2 for Th17 cell-promoting conditions, as described in Example 5 for murine B7-H4-Ig in vitro bioactivity. Human B7-H4-Ig was directly added into the culture at 0, 0.1, 1 or 10 μg/mL. Human Control IgG1 (Synagis®) was added into the culture to bring the final protein concentration to 10 μg/mL. […] After depletion of CD4^+CD25^+ T cells, CD25^+/P3^+ cells were decreased from approximately 5% to 1%.
# [3] = system: DBA/1 mice; test: Therapeutic CIA study AA#80 (male mice), disease score; assay type: in vivo, mouse; conditions: for clinical score: individual mice sampled for serum analysis; for AA#80 CIA disease scores: individual mice (Tag #)
# Description: as §1, §2, §3, §4, §5
substance,measurement,setting,value
"B7-H4-Ig: B7-H4 extracellular domain fused to Ig Fc; bare label is the human protein in Example 3, murine protein in Examples 1, 2, 5, 7-11","disease scores, AA#79","[1]; female DBA/1 mice, 20 mg/kg IP 3× weekly, 8 doses from Day 29, vs control groups (FIG. 7), 20 mg/kg",lower disease scores than mice in the control groups; also recorded: prolonged period of stable disease scores
same,decrease in IFN-γ production,"[2]; Th1 conditions, APC/OVA, CD25+ T cells depleted (open triangles), various doses (FIG. 29A)",dose dependent
same,inhibition of IFN-γ production,"[2]; Th1 conditions, APC/OVA, in the presence of CD4+CD25+ Treg cells (solid triangle) (FIG. 29A)",more profound
same,IL-10 production,"[2]; Th1 conditions, APC/OVA, solid triangles (FIG. 29B)",increased IL-10 production in a dose dependent manner
same,"disease scores, AA#80","[3]; male DBA/1 mice, 20 mg/kg IP 3× weekly, 8 doses from Day 24, vs control groups (FIG. 8), 20 mg/kg",lower disease scores than mice in the control groups; also recorded: prolonged period of stable disease scores
"Human B7-H4-Ig: human B7-H4 extracellular domain fused to hinge, CH2 and CH3 regions of human immunoglobulin Cγ1 chain; representative SEQ ID NOs:114-137",CIA disease score,"[1]; AA#79, Study Day 12, individual mouse (Tag#)",1 (2×) and 0 (4×)
same,CIA disease score,"[1]; AA#79, Study Day 18, individual mouse (Tag#)",2 (2×) and 1 (3×) and 0
same,CIA disease score,"[1]; AA#79, Study Day 22, individual mouse (Tag#)",2 (5×) and 1
same,CIA disease score,"[1]; AA#79, Study Day 25, individual mouse (Tag#)",2 (3×) and 3 (2×) and 4
same,CIA disease score,"[1]; AA#79, Study Day 27, individual mouse (Tag#)",3 (2×) and 5 and 4 (3×)
same,CIA disease score,"[1]; AA#79, Study Day 29, individual mouse (Tag#)",6 and 5 (2×) and 4 (2×) and 7
same,CIA disease score,"[1]; AA#79, Study Day 32, individual mouse (Tag#)",5 (2×) and 4 (2×) and 2
same,CIA disease score,"[1]; AA#79, Study Day 34, individual mouse (Tag#)",4 (2×) and 2 and 5 (2×)
same,CIA disease score,"[1]; AA#79, Study Day 36, individual mouse (Tag#)",4 and 5 and 1 and 6 and 3 and 12
same,CIA disease score,"[1]; AA#79, Study Day 39, individual mouse (Tag#)",5 and 12 and 6 and 9 and 3 and 11
same,CIA disease score,"[1]; AA#79, Study Day 41, individual mouse (Tag#)",5 (2×) and 12 and 7 and 10 (2×)
same,CIA disease score,"[1]; AA#79, Study Day 43, individual mouse (Tag#)",3 (2×) and 10 (2×) and 6 and 9
same,CIA disease score,"[1]; AA#79, Study Day 46, individual mouse (Tag#)",4 and 9 and 10 (2×) and 11 and 3
same,CIA disease score,"[1]; AA#79, Study Day 48, individual mouse (Tag#)",5 and 10 (3×) and 6 and 11
same,CIA disease score,"[1]; AA#79, Study Day 50, individual mouse (Tag#)",6 (2×) and 9 (2×) and 10 and 12
same,CIA disease score,"[1]; AA#79, Study Day 54, individual mouse (Tag#)",3 and 10 (2×) and 13 (2×) and 5
same,CIA disease score,"[1]; AA#79, Study Day 57, individual mouse (Tag#)",5 (2×) and 11 and 10 (2×) and 12
same,IFN-γ production in Th1 cells,"[2]; 0, 0.1, 1 or 10 μg/mL in solution, anti-CD3/CD28 beads (FIG. 27)",reduced IFN-γ production
same,murine Th1 proliferation,"[2]; 0, 0.1, 1 or 10 μg/mL in solution, anti-CD3/CD28 beads, dose dependent (FIG. 26)",blocked murine Th1/Th17 proliferation
same,clinical score,[3]; Day 27,2 (2×) and 3
same,clinical score,[3]; Day 34,5 and 4
same,clinical score,[3]; Day 41,9 (2×) and 6
same,AA#80 CIA disease scores,[3]; Study Day 20,4 (2×) and 2 (3×) and 3 (2×) and 5 (2×)
same,AA#80 CIA disease scores,[3]; Study Day 22,4 (4×) and 3 and 5 (4×)
same,AA#80 CIA disease scores,[3]; Study Day 24,4 (3×) and 5 (5×) and 2
same,AA#80 CIA disease scores,[3]; Study Day 27,3 (3×) and 2 (5×) and 4
same,AA#80 CIA disease scores,[3]; Study Day 29,2 (5×) and 3 and 1 and 5 (2×)
same,AA#80 CIA disease scores,[3]; Study Day 31,2 (4×) and 3 and 1 and 4 (2×) and 5
same,AA#80 CIA disease scores,[3]; Study Day 34,2 (2×) and 5 (3×) and 1 and 4 (2×) and 6
same,AA#80 CIA disease scores,[3]; Study Day 36,3 and 7 (3×) and 4 (3×) and 5 and 6
same,AA#80 CIA disease scores,[3]; Study Day 38,3 (4×) and 7 and 9 and 5 and 6 and 10 and 12
same,AA#80 CIA disease scores,[3]; Study Day 41,4 and 9 (5×) and 6 and 10 and 13
same,AA#80 CIA disease scores,[3]; Study Day 44,3 and 11 (3×) and 8 and 9 and 12 and 14 and 4
